In ChEMBL document CHEMBL3351324, “Impact of Stereochemistry on Ligand Binding: X-ray Crystallographic Analysis of an Epoxide-Based HIV Protease Inhibitor” (ACS Med Chem Lett, 2014) one finds inhibition and IC50 data, which are given here for 1 compound.

Molecules are shown by their SMILES. Active and inactive are the calls of the source. No cut-off for these calls is given here.

For test [1], the target named is Protease (Human immunodeficiency virus 1) (UniProt Q9YQ12). The experiment in a line: Irreversible inhibition of HIV1 protease by standard fluorimetric assay.
The target of the next test is Protease (Human immunodeficiency virus 1, UniProt Q9YQ12). Briefly: Inhibition of HIV1 protease by standard fluorimetric assay.
The target in test [2] is Protease (Human immunodeficiency virus 1) (UniProt Q9YQ12). Briefly: Covalent inhibition of HIV1 protease assessed as covalent modification of enzyme residues by ESI-MS method.
Test [3] has the same target. Briefly: Inhibition of HIV1 protease assessed as compound epoxide ring interaction with enzyme active site by X-ray crystallography.
Test [4] shares this target. Briefly: Time dependent inhibition of HIV1 protease by standard fluorimetric assay.

For the compound `CC(C)[C@H](NC(=O)COc1ccccc1)C(=O)N[C@@H](Cc1ccccc1)[C@@H](O)[C@@H]1O[C@H]1Cc1ccccc1`, the inhibition result in test [1], in test [2] and in test [4] was “inactive” each time. The compound also gave a 50% inhibitory concentration (IC50) at Protease of 670 nM. Further, in test [3], the inhibition entry is “Active”.
